We go through ten compounds from patent US10940126B2, “Inhibition of IL-8 in the treatment of pain and/or bone loss” (priority 2015, dated 2021).

Data set [1] relates to mice. The experiment in a line: Mechanical hypersensitivity: von Frey filaments, 50% withdrawal threshold of hind paws. The data set is classed as in vivo.
The conditions of data set [2]: cited from earlier work.
A further data set has as its target T1, CXCR2 (Homo sapiens, UniProt P25025).
T1 sequence (P25025 1-360): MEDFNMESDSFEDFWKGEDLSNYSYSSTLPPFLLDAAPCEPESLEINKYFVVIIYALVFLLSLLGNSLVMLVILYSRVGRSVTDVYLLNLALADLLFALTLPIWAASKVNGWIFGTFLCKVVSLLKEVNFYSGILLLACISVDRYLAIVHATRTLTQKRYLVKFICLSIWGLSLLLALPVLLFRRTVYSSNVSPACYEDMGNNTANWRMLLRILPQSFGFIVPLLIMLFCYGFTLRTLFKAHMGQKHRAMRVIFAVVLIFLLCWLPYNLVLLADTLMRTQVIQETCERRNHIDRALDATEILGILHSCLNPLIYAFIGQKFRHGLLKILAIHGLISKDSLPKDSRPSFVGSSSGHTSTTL
The following applies: relative to SB225002; cited from earlier work.

The subject of another data set is RA synovial fibroblasts. The following applies: cited from earlier work.
Data set [3] has as its system Cxcl1, Cxcl2 and other inflammatory factor mRNA. The experiment in a line: Quantitative real-time PCR of ankle joint and plantar paw skin mRNA. The following applies: hD10/B02 mAb 1 mg each; zoledronate 100 ug/kg. The data set is classed as in vivo, mice. Here is the method: Ankle joints and plantar paw skin of the hind legs were processed for gene expression analysis. Muscle and tendons were removed from ankle joints, which were then snap frozen and pulverized. Tissues were sonicated in TRIzol (Invitrogen) and RNA was extracted according to manufacturer's protocol. After complementary DNA (cDNA) synthesis, quantitative real-time PCR (Applied Biosystems) was performed using hydrolysis probes to determine the relative messenger RNA (mRNA) levels. Primers for chemokines Ccl2 (MCP1, Mm00441242_m1), Cxcl1 (Mm04207460_m1), Cxcl2 (Mm00436450_m1), Cxcl5 (Mm00436451_g1), inflammatory cytokines Tnf (Mm00443258_m1), Il1b (Mm00434228_m1), Il6 (Mm00446190_m1), mast cell proteases Mcpt4 (Mcp4, Mm00487636-g1), Tpsb2 (Mcp6, Mm01301240-g1), pro-inflammatory enzyme Cox2 (Mm00478374_m1), matrix metallo proteases Mmp2 (Mm00439498_m1), Mmp9 (Mm00442991_m1), Mmp13 (Mm00439491-m1), and reference gene Hprt1 (Mm01545399_m1) (all from Applied Biosystems) were used to determine threshold cycle values to calculate the number of cell equivalents in each sample with the standard curve method. Data was normalized to Hprt1 values and expressed as relative expression units (REU).

Another data set concerns neutrophil recruitment. The following applies: cited from earlier work.
The conditions of data set [4]: in vivo; cited from earlier work.
For a further data set, the system named is ankle joints and tibia. The experiment in a line: Joint histology and micro-CT (synovitis, bone erosion, cartilage). In kind it is in vivo. The following applies: mice.
For data set [5], the system named is mice. The experiment in a line: Cold sensitivity, acetone drop on hind paw. The following applies: mice i.v. monoclonal ACPA D10 and B2; reparixin 30 mg/kg/day s.c. six days; day 19. In kind it is in vivo. Here is the method:
To assess sensitivity to cold, the mice were placed in the same testing device as used for detection of mechanical hypersensitivity. After habituation, a 1 ml syringe was used to gently apply a drop of acetone to the plantar surface of the hind paw and the duration of the nocifensive behavior (lifting, shaking, biting, and licking the paw) was recorded. The test was repeated three times on each paw and the average was calculated.

Another data set deals with osteoclasts. The experiment in a line: Osteoclast activation under IL-8 receptor blockade. The following applies: blockade of IL-8 receptors.
The subject of data set [6] is mice. The experiment in a line: Heat sensitivity, modified Hargreaves box. The data set is classed as in vivo. The following applies: mice i.v. monoclonal ACPA D10 and B2; reparixin 30 mg/kg/day s.c. six days; tested day 26. From the text:
Heat sensitivity was examined using a modified Hargreaves box ([…]. et al., 1997). Mice were placed individually in Plexiglas cubicles on the glass surface and allowed to habituate. A radiant heat stimulus was then applied from below to a hind paw until a motion sensor detects a brisk withdrawal and stops the stimulus. Elapsed time is automatically recorded with a cutoff at 20 seconds. Three measurements from each paw were averaged and presented as latency (in seconds) for the withdrawal.

[7] abbreviates: mice injected with hG09 or hC03, thresholds at baseline, 1.5, 3 and 6 hours.

“Also recorded” adds a separate entry of the source.

Regarding `COc1ccc2cc([C@H](C)C(=O)O)ccc2c1` [naproxen], in the data set on mice [1] (setting [7]), the “Pain measured as withdrawal threshold, effect of painkiller” value is “apparent lack of effect; also recorded: no detectable effect on pain”.
Same read-out and setting: in the case of `NCC1(CC(=O)O)CCCCC1` [gabapentin] it was “apparent lack of effect; also recorded: no detectable effect on pain”.
With `C[C@H](CO)Nc1nc(SCc2cccc(F)c2F)nc2[nH]c(=O)sc12` [AZD-8309, 5-[[(2,3-Difluorophenyl)methyl]thio]-7-[[(1R)-2-hydroxy-1-methylethyl]amino]-thiazolo[4,5-d]pyrimidin-2(3H)-one], the “Tolerability in clinical trials” value in data set [2] (human, in vivo) is reported as “well tolerated”.
Take `O=C(Nc1ccc(Cl)c(S(=O)(=O)N2CCNCC2)c1O)Nc1cccc(F)c1Cl` [SB656933, 1-(2-chloro-3-fluorophenyl)-3-(4-chloro-2-hydroxy-3-piperazin-1-ylsulfonylphenyl)urea]: the “Tolerability in clinical trials” value in [2] (human, in vivo) is “well tolerated at all doses”. Also, the “Potency as CXCR2 antagonist” value at CXCR2 is on record as “same potency as SB225002”.
For the compound epigallocatechin-3-gallate [EGCG], in the data set on RA synovial fibroblasts, the “Induction of IL-8 production” value is listed as “inhibited the induction of IL-8 production”.
`O=P(O)(O)C(O)(Cn1ccnc1)P(=O)(O)O` [zoledronate]: the “ACPA induced pain measured as withdrawal threshold, effect of osteoclast inhibitor” value in the data set with mice [1] (hD10/hB02 mAb 1 mg each, zoledronate for 10 days) was “dose-dependent effect; also recorded: dose dependent effect”. The “ACPA-induced increase of CXCL1 mRNA in the ankle joint” value in data set [3] is reported as “efficiently prevented”.
On to `C[C@@H](C(N)=O)c1ccc(OS(=O)(=O)C(F)(F)F)cc1` [DF2162, 4-[(1R)-2-amino-1-methyl-2-oxoethyl]phenyl trifluoromethane sulfonate], for which, in the data set with neutrophil recruitment (mice), the “CXCL1 and carrageenan-induced pain-like behavior” value is “blocked”; the “Neutrophil recruitment induced by injection of CXCL1 or carrageenan to the paw” value is “inhibits neutrophil recruitment”. For the same compound, the Nociceptor sensitization result with neutrophil recruitment (mouse, in vivo) is listed as “does not directly affect nociceptor sensitization”. For the same compound, the “Results in pre-clinical studies of adjuvant-induced polyarthritis and bleomycin-induced pulmonary inflammation and fibrosis” value in [4] is on record as “promising results”.
For the compound `CC(C)Cc1ccc([C@@H](C)C(=O)NS(C)(=O)=O)cc1` [reparixin, (2R)-2-[4-(2-methylpropyl)phenyl]-N-methylsulfonylpropanamide], in the data set with mice [1] (mice i.v. monoclonal ACPA D10 and B2 (1 mg each), reparixin 30 mg/kg/day s.c. six consecutive days starting day 6, vs saline controls), the “ACPA-induced mechanical hypersensitivity, effect of treatment” value was “partially reversed”. Also, in the data set on mice [1] (naive mice not injected with ACPAs, treatment for six days), the “Tactile thresholds in naive mice” value is “did not affect tactile thresholds”. Moreover, the “Pain measured as withdrawal threshold, effect of treatment” value with mice [1] (pain induced by human monoclonal ACPA hC03 (hG09 control), reparixin 30 mg/kg once a day starting day 1) is listed as “attenuating effects”. Besides, the “Bone destruction induced by injected ACPA” value in the data set with ankle joints and tibia is reported as “completely reversed”. Further, the “ACPA-induced sensitivity to cold, effect of treatment” value with mice [5] is reported as “attenuated sensitivity to cold”. In addition, the Activation of osteoclasts entry in the data set on osteoclasts is reported as “blocks the activation of osteoclasts”. For the same compound, the “ACPA-induced heat hypersensitivity, effect of treatment” value in the data set on mice [6] is reported as “partially reversed”.
As to `CC[C@@H](Nc1c(Nc2cccc(C(=O)N(C)C)c2O)c(=O)c1=O)c1ccc(C)o1` [SCH527123, 2-hydroxy-N,N-dimethyl-3-[[2-[[1(R)-(5-methyl-2-furanyl)propyl]amino]-3,4-dioxo-1-cyclobuten-1-yl]amino]benzamide], in data set [2] (human, in vivo), the “Adverse events in clinical trials” value is recorded as “no treatment-induced adverse events were observed”. Besides, in [2] (oral, clinical trials), the Severe asthma result is reported as “modest improvement” and the Sputum neutrophils result is on record as “reduction in sputum neutrophils”.
Consider `O=C(O)Cc1ccccc1Nc1c(Cl)cccc1Cl` [diclofenac], for which the “Pain measured as withdrawal threshold, effect of painkiller” value in the data set with mice [1] (mice injected with hC03 and hB09G09, diclofenac 30 mg/kg, observed during 6 hours) is “apparent lack of effect”.
